Assay results published in US20250375436A1, “SERDEXMETHYLPHENIDATE FOR TREATMENT OF IDIOPATHIC HYPERSOMNIA” (ZEVRA THERAPEUTICS, INC., priority 2024, published 2025).

Columns and labels:
[1] = test system: adults with IH; experiment: Phase 2 IH study: Sleep Inertia Visual Analog Scale (SI-VAS); assay type: in vivo, human; settings: for SI-VAS, Difference in LS Mean (SE): SDX vs placebo, ANCOVA; for Decrease in mean SI-VAS score: 5-week titration period
Description: “Sleep Inertia Visual Analog Scale” or “SI-VAS,” as it relates to the present technology, is a psychometric response scale to assess how difficult it was for the patient to wake up in the morning. The SI-VAS is a unipolar scale anchored at 0 (“very easy”) and 100 (“very difficult”).
(§1) A double-blind, placebo-controlled, randomized-withdrawal, dose-optimizing, multi-center study investigated the safety and efficacy of serdexmethylphenidate for the treatment of IH. Twenty-two (22) patients completed a 7-week study consisting of two parts. Part 1 of the trial comprised a five-week open-label titration phase during which patients were optimized to one of four total daily doses of serdexmethylphenidate (80, 160, 240, or 320 mg/day). About half the study participants were assigned to take the total daily dose of study drug once per day just before going to bed (QD dosing cohort). The other half was instructed to take half the daily dose of study drug in the morning after awakening and the second half of the daily dose just before going to bed (BID dosing cohort). The titration procedure during the 5-week open label period was conducted as follows: patient treatment was initiated with the lowest total daily dose (80 mg/day) regardless of dosing regimen. At subsequent clinical visits scheduled at intervals of about 1 week each, the dose of the patient was either decreased (except after the first week), maintained, or increased based on tolerability, clinical effect, and adverse events. Depending on the severities of any dose-limiting effects as determined by the clinician, the dose was decreased if possible or the patient was discontinued from the study. If the dose was tolerated by the patient and the clinician determined an opportunity to improve effectiveness, the dose of study drug was increased if possible. Otherwise, the dose was maintained in the subsequent week.
(§2) Part 2 of the trial comprised a two-week randomized (2:1), double-blind, withdrawal phase, during which two-thirds of the trial participants continued to receive their optimized dose while the remaining one-third received placebo. During the withdrawal phase, patients continued the same dosing regimen (QD or BID) they were assigned to at treatment initiation and adhered to during the titration phase.
(§3) Secondary efficacy endpoints included Excessive Daytime Sleepiness (EDS) assessed with the Epworth Sleepiness Scale (ESS). Additional secondary endpoints were based on the Idiopathic Hypersomnia Severity Scale (IHSS), daily rating of difficulty of waking up in the morning assessed with the Sleep Inertia Visual Analog Scale (SI-VAS), and rating of brain fog symptoms measured with an exploratory Brain Fog Scale (BFS). Scores on the ESS, IHSS, and BFS were based on a 1-week look-back period.
The SI-VAS is a unipolar scale anchored at 0 (“very easy”) and 100 (“very difficult”). The horizontal dashed line at an SI-VAS score of 50 points represents the midpoint between individuals finding it very easy to awaken and individuals finding it very difficult to awaken in the morning. SI-VAS Patients on the QD dosing schedule reported a decrease of about 33 points in mean SI-VAS score over the 5-week titration period while being treated with conjugate of d-methylphenidate, while patients on the BID dosing schedule reported a decrease in mean SI-VAS of about 24-30 points.

[2] = test system: adults with IH; experiment: Phase 2 IH study: Brain Fog Scale (BFS); assay type: in vivo, human; settings: for Brain Fog, Mean, Titration Baseline: before treatment; for Brain Fog, Mean, Randomization Baseline (Week 5): end of open-label titration; for Brain Fog, Difference in LS Mean (SE): SDX vs placebo, ANCOVA
Description: “Brain Fog Symptom Score” or “BFS” as it relates to the present technology, means the total score collected with a 19-item questionnaire asking the respondents to describe their mental state while experiencing “Brain Fog” during the last week. The currently recognized 19 mental states of BF include forgetful, difficulty thinking, difficulty focusing, cloudy, difficulty finding the right words/communicating, mental fatigue, slow, mind went blank, spacey, difficulty processing what others say, exhausted, easily distracted, difficulty processing words read, confused, annoyed, sleepy, lost, detached, thoughts moving too quickly. Each item is answered based on a 0 to 4-point Likert scale where 0 means “strongly disagree” and 4 means “strongly agree”.
as §1, §2, §3
The BFS scale is based on a 19 item questionnaire where each question is scored on a 0-4 Likert scale where a score of 0 means “strongly disagree”, a score of 2 means “neutral”, and a score of 4 means “strongly agree”. Possible BFS total scores range from 0 to 76. The horizontal dashed line at a BFS score of 38 points represents the total BFS score of for “neutral” responses to all 19 questions.

[3] = Comparator study with Ritalin: plasma d-MPH PK; assay type: in vivo, human; settings: for CL/F - Geo Mean: plasma d-MPH
Description: Ritalin is a racemate of d-methylphenidate approved for treating narcolepsy, which is a similar disorder of hypersomnolence characterized by significant excessive daytime sleepiness. The PK profiles of patient administered 80 mg or 200 mg of serdexmethylphenidate are compared to the PK profiles of patients administered 40 mg of Ritalin twice, 5 hours apart, and a single dose of 80 mg of Ritalin.

[4] = Comparison of serdexmethylphenidate to other prescription treatments for sleep disorders (key attributes)
Description: The data presented in the preceding examples supports the conclusion that serdexmethylphenidate has several advantages over other treatments for IH.
Most importantly, serdexmethylphenidate improves IH, EDS, SI, and BF symptoms; none of the other treatment options in Table 6 improve symptoms in all of the instant sleep disorder. […] Additionally, serdexmethylphenidate has advantageous dosing amounts and dosing schedules compared to both XYWAV® and LUMRYZ®. For example, XYWAV® requires two nighttime dosages, whereas serdexmethylphenidate reduces sleep disorder symptoms with only a single dose before bedtime.

[5] = single 80 mg and single 200 mg doses

COC(=O)[C@H](c1ccccc1)[C@H]1CCCCN1C(=O)OC[n+]1cccc(C(=O)N[C@@H](CO)C(=O)O)c1 [SDX, serdexmethylphenidate]
SI-VAS, Difference in LS Mean (SE) ([1]; BID Cohort, p-value 0.104): −10.0 (5.98) | Decrease in mean SI-VAS score ([1]; BID dosing schedule): 24-30 points | SI-VAS, Mean Change from Randomization Baseline to Week 7 ([1]; QD Cohort, SDX (N = 15)): 5.9 | SI-VAS, Mean, End of Withdrawal Period (Week 7) ([1]; QD Cohort, SDX (N = 15)): 40.4 | SI-VAS, Mean, Titration Baseline ([1]; QD Cohort, SDX (N = 15), before treatment): 68.8 | SI-VAS, Mean, Randomization Baseline (Week 5) ([1]; QD Cohort, SDX (N = 15), end of open-label titration): 35.1 | SI-VAS, Difference in LS Mean (SE) ([1]; QD Cohort, p-value 0.208): 8.2 (6.39) | Decrease in mean SI-VAS score ([1]; QD dosing schedule): about 33 points | Increase in mean SI-VAS score ([1]; both QD and BID cohorts continuing treatment, 2-week withdrawal period): less than 6 points | Brain Fog, Mean Change from Randomization Baseline to Week 7 ([2]; BID Cohort, SDX (N = 17)): 1.5 | Brain Fog, Mean, End of Withdrawal Period (Week 7) ([2]; BID Cohort, SDX (N = 17)): 30.1 | Brain Fog, Mean, Titration Baseline ([2]; BID Cohort, SDX (N = 17)): 52.4 | Brain Fog, Mean, Randomization Baseline (Week 5) ([2]; BID Cohort, SDX (N = 17)): 28.6 | Brain Fog, Difference in LS Mean (SE) ([2]; BID Cohort, p-value 0.060): −13.7 (7.07) | Brain Fog, Mean Change from Randomization Baseline to Week 7 ([2]; QD Cohort, SDX (N = 15)): 0.9 | Brain Fog, Mean, End of Withdrawal Period (Week 7) ([2]; QD Cohort, SDX (N = 15)): 28.5 | Brain Fog, Mean, Titration Baseline ([2]; QD Cohort, SDX (N = 15)): 52.3 | Brain Fog, Mean, Randomization Baseline (Week 5) ([2]; QD Cohort, SDX (N = 15)): 27.5 | Brain Fog, Difference in LS Mean (SE) ([2]; QD Cohort, p-value 0.995): 0.0 (7.50) | Decrease in mean BFS score ([2]; all patients, 5-week titration period): 19-25 points | Change in mean BFS score ([2]; patients continuing treatment during the 2-week withdrawal period): no more than 1.5 points | CL/F - Geo Mean ([3]; SDX 80 mg (N = 14)): (283) L/h | CL/F - Geo Mean ([3]; SDX 200 mg (N = 14)): (304) L/h | AUC0-24 and AUCinf compared to Ritalin [3, 5]: higher | Cmax concentrations compared to Ritalin [3, 5]: lower | Tmax compared to Ritalin [3, 5]: longer | Abnormal Rapid Eye Movement (REM) sleep cycles [4]: does not result in abnormal Rapid Eye Movement (REM) sleep cycles | IH, EDS, SI, and BF symptoms [4]: improves
